# Measurements reported in ChEMBL document CHEMBL3885881, “DrugMatrix”.
# Species: Rattus norvegicus
# Assay: DrugMatrix - Regimen: Daily Repeat
# Format: toxicity, organism-based, Sprague-Dawley
# Set-up: regimen Daily Repeat, gender Male, age 6-8 weeks
# Conditions: in vivo, vehicle 100 % SALINE; for ABSOLUTE BASOPHIL / ABSOLUTE EOSINOPHIL / ABSOLUTE LYMPHOCYTE / ABSOLUTE MONOCYTE / ABSOLUTE SEGMENTED NEUTROPHIL / BASOPHIL / EOSINOPHIL / ERYTHROCYTE COUNT / HEMOGLOBIN / LEUKOCYTE COUNT / LYMPHOCYTE / MEAN CORPUSCULAR HEMOGLOBIN / MEAN CORPUSCULAR HEMOGLOBIN CONCENTRATION / MEAN CORPUSCULAR VOLUME / NUCLEATED RED BLOOD CELLS / PLATELET COUNT: tissue Blood
# [1] = iv, 0.004 mg/kg, 72 h, dose level Low, time 3 day
# [2] = iv, 0.004 mg/kg, 72 h, tissue Plasma, dose level Low, time 3 day
# [3] = iv, 0.004 mg/kg, 120 h, dose level Low, time 5 day
# [4] = iv, 0.004 mg/kg, 120 h, tissue Plasma, dose level Low, time 5 day
# [5] = sc, 0 mg/kg, 72 h, route mini-PUMP - SUBCUTANEOUS, dose level Control, time 3 day
# [6] = sc, 0 mg/kg, 72 h, tissue Plasma, route mini-PUMP - SUBCUTANEOUS, dose level Control, time 3 day
structure (smiles),measurement,setting,value
CNC[C@H](O)c1ccc(O)c(O)c1 [EPINEPHRINE],ABSOLUTE BASOPHIL,[1],0 CELLS/uL
same,ABSOLUTE EOSINOPHIL,[1],127.67 CELLS/uL
same,ABSOLUTE LYMPHOCYTE,[1],11755 CELLS/uL
same,ABSOLUTE MONOCYTE,[1],0 CELLS/uL
same,ABSOLUTE SEGMENTED NEUTROPHIL,[1],884 CELLS/uL
same,BASOPHIL,[1],0%
same,EOSINOPHIL,[1],1%
same,ERYTHROCYTE COUNT,[1],5.71 x10E6/uL
same,HEMOGLOBIN,[1],14.07 G/DL
same,LEUKOCYTE COUNT,[1],12.77 x10E3/uL
same,LYMPHOCYTE,[1],92%
same,MEAN CORPUSCULAR HEMOGLOBIN,[1],24.73 pg
same,MEAN CORPUSCULAR HEMOGLOBIN CONCENTRATION,[1],37.8 G/DL
same,MEAN CORPUSCULAR VOLUME,[1],65.37 fL
same,NUCLEATED RED BLOOD CELLS,[1],0 /100WBC
same,PLATELET COUNT,[1],1271 x10E3/uL
same,ALANINE AMINOTRANSFERASE,[2],57.33 u/L
same,ALBUMIN,[2],4.43 G/DL
same,ALKALINE PHOSPHATASE,[2],425 u/L
same,ASPARTATE AMINOTRANSFERASE,[2],75 u/L
same,BLOOD UREA NITROGEN,[2],14 mg/dL
same,CARBON DIOXIDE,[2],27 mmol/L
same,CHLORIDE,[2],101.33 MEQ/L
same,CHOLESTEROL,[2],80 mg/dL
same,CREATINE PHOSPHOKINASE,[2],187.33 u/L
same,CREATININE,[2],0.23 mg/dL
same,LACTATE DEHYDROGENASE,[2],118.67 u/L
same,LIPASE,[2],9 u/L
same,PHOSPHORUS,[2],12.7 mg/dL
same,POTASSIUM,[2],6.89 MEQ/L
same,SODIUM,[2],145.07 MEQ/L
same,TOTAL PROTEIN,[2],6.1 G/DL
same,ABSOLUTE BASOPHIL,[3],0 CELLS/uL
same,ABSOLUTE EOSINOPHIL,[3],147.67 CELLS/uL
same,ABSOLUTE LYMPHOCYTE,[3],10984 CELLS/uL
same,ABSOLUTE MONOCYTE,[3],0 CELLS/uL
same,ABSOLUTE SEGMENTED NEUTROPHIL,[3],1368.33 CELLS/uL
same,BASOPHIL,[3],0%
same,EOSINOPHIL,[3],1%
same,ERYTHROCYTE COUNT,[3],5.59 x10E6/uL
same,HEMOGLOBIN,[3],13.2 G/DL
same,LEUKOCYTE COUNT,[3],12.5 x10E3/uL
same,LYMPHOCYTE,[3],87.33%
same,MEAN CORPUSCULAR HEMOGLOBIN,[3],23.63 pg
same,MEAN CORPUSCULAR HEMOGLOBIN CONCENTRATION,[3],37.23 G/DL
same,MEAN CORPUSCULAR VOLUME,[3],63.47 fL
same,NUCLEATED RED BLOOD CELLS,[3],0 /100WBC
same,PLATELET COUNT,[3],1309.33 x10E3/uL
same,ALANINE AMINOTRANSFERASE,[4],48 u/L
same,ALBUMIN,[4],4.47 G/DL
same,ALKALINE PHOSPHATASE,[4],367.33 u/L
same,ASPARTATE AMINOTRANSFERASE,[4],79 u/L
same,BLOOD UREA NITROGEN,[4],16 mg/dL
same,CARBON DIOXIDE,[4],24 mmol/L
same,CHLORIDE,[4],103 MEQ/L
same,CHOLESTEROL,[4],67.33 mg/dL
same,CREATINE PHOSPHOKINASE,[4],204.67 u/L
same,CREATININE,[4],0.23 mg/dL
same,LACTATE DEHYDROGENASE,[4],102.67 u/L
same,LIPASE,[4],8 u/L
same,PHOSPHORUS,[4],13.37 mg/dL
same,POTASSIUM,[4],6.61 MEQ/L
same,SODIUM,[4],145.67 MEQ/L
same,TOTAL PROTEIN,[4],6.3 G/DL
same,ABSOLUTE BASOPHIL,[5],0 CELLS/uL
same,ABSOLUTE EOSINOPHIL,[5],77.17 CELLS/uL
same,ABSOLUTE LYMPHOCYTE,[5],14293.83 CELLS/uL
same,ABSOLUTE MONOCYTE,[5],354 CELLS/uL
same,ABSOLUTE SEGMENTED NEUTROPHIL,[5],1658.33 CELLS/uL
same,BASOPHIL,[5],0%
same,EOSINOPHIL,[5],0.5%
same,ERYTHROCYTE COUNT,[5],6.27 x10E6/uL
same,HEMOGLOBIN,[5],13.4 G/DL
same,LEUKOCYTE COUNT,[5],16.38 x10E3/uL
same,LYMPHOCYTE,[5],87.17%
same,MEAN CORPUSCULAR HEMOGLOBIN,[5],21.42 pg
same,MEAN CORPUSCULAR HEMOGLOBIN CONCENTRATION,[5],36.27 G/DL
same,MEAN CORPUSCULAR VOLUME,[5],59.03 fL
same,NUCLEATED RED BLOOD CELLS,[5],0 /100WBC
same,PLATELET COUNT,[5],904.67 x10E3/uL
same,ALANINE AMINOTRANSFERASE,[6],48.33 u/L
same,ALBUMIN,[6],3.82 G/DL
same,ALKALINE PHOSPHATASE,[6],282.33 u/L
same,ASPARTATE AMINOTRANSFERASE,[6],86.83 u/L
same,BLOOD UREA NITROGEN,[6],20.17 mg/dL
same,CARBON DIOXIDE,[6],34.67 mmol/L
same,CHLORIDE,[6],102 MEQ/L
same,CHOLESTEROL,[6],71.5 mg/dL
same,CREATININE,[6],0.2 mg/dL
same,LACTATE DEHYDROGENASE,[6],159 u/L
same,LIPASE,[6],9 u/L
same,PHOSPHORUS,[6],10.12 mg/dL
same,POTASSIUM,[6],5.92 MEQ/L
same,SODIUM,[6],147.8 MEQ/L
same,TOTAL BILIRUBIN,[6],0.2 mg/dL
